Columns and labels:
Type in all cases: in vivo, CF1 male mice
serum triglycerides [1] = experiment: Testing of Normal Mice: serum triglycerides (BioDynamics kit), Example 7; details: Mus musculus, 384 h; 20 mg/kg/day ip, day 16, ± SD
Procedure: (§1) Suspensions of Compounds Nos. 1-9 were prepared wherein the compounds were suspended in an aqueous 1% carboxymethylcelluose solution, homogenized and administered to CF1 male mice, each weighing approximately 25 grams, intraperitoneally on a daily basis for 16 days. The dosage was, with the exception of one compound, 20 milligrams of the active compound per kilogram of mouse weight per day. On days 9 and 16 blood was obtained by tail vein bleeding. The blood serum was separated by centrifugation for three minutes. Serum cholesterol levels were determined by a modification of the Liebermann-Burchard reaction. Serum was also collected on day 16 and the triglycerides content was determined by a commercial kit, BioDynamics/bnc Single Vile Colorimetric Method 348201. Each compound was tested on a group of six mice.
(§2) In addition to the above-described treated mice, untreated control groups of six mice were similarly tested on days 9 and 14 or 16 to determine their serum cholesterol and triglycerides blood levels. Table 5 reports the percent control, based on the serum cholesterol and serum triglyceride levels of the treated mice compared to the untreated controls. Table 5 also includes the standard deviation indicating the level of confidence of these numbers.
(§3) Example 7 was repeated substituting clofibrate, a compound used in the prior art to lower serum cholesterol and serum triglyceride levels. The clofibrate was administered as a suspension in an aqueous 1% solution of carboxymethylcellulose. However, unlike the compounds of the present invention which were administered at a dosage of 20 mg/kg day, ip, this compound was administered at the elevated concentration of 150 mg/kg day, ip.

serum cholesterol [2] = experiment: Testing of Normal Mice: serum cholesterol (modified Liebermann-Burchard), Example 7; details: Mus musculus, 20 mg/kg/day ip
Procedure: as §1, §2, §3

serum triglycerides [3] = experiment: Hypolipidemic Activity of Compounds 1 and 10-33, Example 13: serum triglycerides; details: Mus musculus, 384 h; 20 mg/kg/day ip, day 16, ± SD; read-out: Serum Triglyceride as a function of control, 16 Day
Procedure: (§4) Compounds 1 and 10-33, identified below in Table 11, were suspended by homogenation in a 1% aqueous solution of carboxymethylcellulose (CMC) such that a 0.2 ml dosage supplied a concentration of 20 mg/kg of the active compounds. The suspending agent, the 1% aqueous solution of CMC, was utilized as a control, applied in the same quantity, 0.2 ml. CF1 male mice, maintained in groups of six, were fed Wayne Blox [trademark] laboratory animal show ad libitum with water. The mice, which each weighed approximately 25 g, were administered the drugs interperitoneally at approximately the same time. On days 9 and 16 approximately […] of blood was taken from each of the animals by tail bleeding. After centrifugation to obtain serum, 25 microliter samples were assayed for total cholesterol utilizing the method of Ness et al. Serum triglyicerides were assayed, using a commercially available BioDynamics/bmc triglyiceride kit, on blood collected on the 16th day. By comparison to standards the milligram percent of cholesterol and milligram per deciliter concentration of triglicerides were calculated. Treated values were expressed as a percent of the level of the control animals plus or minus the standard deviation. The "T" values were obtained using the Student's "t" test.

serum cholesterol [4] = experiment: Hypolipidemic Activity of Compounds 1 and 10-33, Example 13: serum cholesterol; details: Mus musculus, 20 mg/kg/day ip
Procedure: as §4

[5] = 216 h, day 9, ± SD, read-out: Serum Cholesterol Control, % Day 9
[6] = 384 h, day 16, ± SD, read-out: Serum Cholesterol Control, % Day 16
[7] = 216 h, day 9, ± SD, read-out: Serum Cholesterol as a function of control, 9 Day
[8] = 384 h, day 16, ± SD, read-out: Serum Cholesterol as a function of control, 16 Day

SMILES	response vs control in vivo at 20 mg/kg (serum triglycerides [1])	response vs control in vivo at 20 mg/kg (serum cholesterol [2]; [5])	response vs control in vivo at 20 mg/kg (serum cholesterol [2]; [6])	response vs control in vivo at 20 mg/kg (serum triglycerides [3])	response vs control in vivo at 20 mg/kg (serum cholesterol [4]; [7])	response vs control in vivo at 20 mg/kg (serum cholesterol [4]; [8])
O=C1NCc2ccccc2-c2ccccc21 [Compound 2, 3,4,5,6-dibenzohomopiperidin-2-one]	73 ± 5%	84 ± 6%	49 ± 4%	–	–	–
CN1Cc2ccccc2-c2ccccc2C1 [Compound 4, 2-methyl-3,4,5,6-dibenzohomo-piperidine]	66 ± 6%	75 ± 6%	61 ± 5%	–	–	–
CCN1Cc2ccccc2-c2ccccc2C1 [Compound 5, 2-ethyl-3,4,5,6-dibenzohomopiperidine]	60 ± 4%	67 ± 5%	59 ± 4%	–	–	–
CCCN1Cc2ccccc2-c2ccccc2C1 [Compound 6, 2-propyl-3,4,5,6-dibenzohomopiperidine]	73 ± 6%	78 ± 6%	65 ± 5%	–	–	–
CCCCN1Cc2ccccc2-c2ccccc2C1 [Compound 7, 2-butyl-3,4,5,6-dibenzohomopiperidine]	52 ± 7%	82 ± 7%	59 ± 6%	–	–	–
CCCCCN1Cc2ccccc2-c2ccccc2C1 [Compound 8, 2-pentyl-3,4,5,6-dibenzohomopiperidine]	71 ± 4%	71 ± 6%	67 ± 5%	–	–	–
CC(=O)CCN1Cc2ccccc2-c2ccccc2C1 [Compound 9, 2-(3-Oxobutyl)-3,4,5,6-Dibenzohomopiperidine]	45 ± 5%	69 ± 8%	56 ± 7%	–	–	–
Cn1c(=O)c2ccccc2c2ccccc2c1=O [Compound 10, N-methyldiphenimide]	–	–	–	67 ± 6%	64 ± 7%	63 ± 5%
CCn1c(=O)c2ccccc2c2ccccc2c1=O [Compound 11, N-ethyldiphenimide]	–	–	–	66 ± 7%	64 ± 6%	62 ± 5%
CCCn1c(=O)c2ccccc2c2ccccc2c1=O [Compound 12, N-propyldiphenimide]	–	–	–	57 ± 5%	69 ± 7%	66 ± 6%
CCCCn1c(=O)c2ccccc2c2ccccc2c1=O [Compound 13, N-butyldiphenimide]	–	–	–	52 ± 5%	78 ± 7%	77 ± 10%
CCCCCn1c(=O)c2ccccc2c2ccccc2c1=O [Compound 14, N-pentyldiphenimide]	–	–	–	60 ± 5%	90 ± 8%	69 ± 4%
O=c1c2ccccc2c2ccccc2c(=O)n1Cc1ccccc1 [Compound 15, N-benzyldiphenimide]	–	–	–	77 ± 7%	91 ± 7%	61 ± 6%
CC(=O)CCn1c(=O)c2ccccc2c2ccccc2c1=O [Compound 16, N-(3-Oxobutyl)-Diphenimide]	–	–	–	90 ± 4%	77 ± 5%	77 ± 7%
O=C(O)CCn1c(=O)c2ccccc2c2ccccc2c1=O [Compound 17, N-(2-Carboxyethyl)-Diphenimide]	–	–	–	75 ± 10%	88 ± 11%	84 ± 6%
O=c1c2ccccc2c2ccccc2c(=O)n1-c1ccccc1 [Compound 18, N-phenyldiphenimide]	–	–	–	62 ± 6%	97 ± 8%	67 ± 6%
